# Measured values taken from patent US20080027005A1, “PEPTIDES EFFECTIVE IN THE TREATMENT OF TUMORS AND OTHER CONDITIONS REQUIRING THE REMOVAL OR DESTRUCTION OF CELLS” (priority 2006, published 2008).
# Where no end group is shown, it is not given here.
# Tested on: prostate
# Assay: Effect of S05B Peptides on tissue at sites of injection: intraprostatic infusion in rats, histology and prostate volume
# Type: in vivo, Male Sprague-Dawley rats
# Conditions: for Histological findings in prostate of treated rats: rat prostate after intraprostatic infusion 1.0 mg/kg, controls minimal or absent changes; for Calculated Mean Volume (mm^3) At 7 Days / Reduction in Mean Volume Compared to Controls / Histological Changes of Cell Death at 24 Hours / Histological Changes of Cell Death at 72 Hours: rat prostate; for Calculated Mean Volume (mm^3) At 7 Days: 7 days after intraprostatic infusion 1.0 mg/kg, V=4/3π(D/2)^3 from mean cross-sectional diameters, PBS control 519; for Reduction in Mean Volume Compared to Controls: 7 days, compared to PBS injection only; for Histological Changes of Cell Death at 24 Hours / Histological Changes of Cell Death at 72 Hours: intraprostatic infusion 300 μl of 1 mg/mL in PBS pH 7.4 (1.0 mg/kg), H & E sections
# Method: The purpose of this example was to determine the effect of S05B Peptides on tissue at sites of injection.
# Male Sprague-Dawley rats (300 gram weight range) were anesthetized with ether and given one of the above S05B Peptides by intraprostatic infusion, a control injection of normal saline or no injection after open surgical visualization of the prostate. The injections consisted of 300 μl of the S05B Peptide 1 mg/mL in PBS pH 7.4. (1.0 mg/kg) (n=85). Rats were painlessly sacrificed after 24 hours (n=18), 72 hours (n=35) and 7 days (n=32). Prostate glands were dissected, fixed in 10% buffered formalin for 24 hours, embedded in paraffin, sectioned, and stained with H & E. For each animal the entire prostate gland was embedded and sectioned. All stained sections were examined histologically. For each prostate at least 2 histological sections were examined, and for each histological section from the 7 day group two cross-sectional diameters (D) at 90° from each other were measured (total of >8 measurements per prostate). The mean of the cross-sectional diameters (D) for each group was used to estimate volume according to V=4/3π(D/2)^3 and the mean volume calculated for each group. Histological changes were assessed on the following scale:
# +++ Present, Moderate and Diffuse
# ++++ Present, Diffuse and Extensive
substance,measurement,value
DQQVLS [S05B-2],Histological findings in prostate of treated rats,"extensive cell death, necrosis, loss of glandular epithelium and atrophy"
same,Calculated Mean Volume (mm^3) At 7 Days,289 mm^3
same,Reduction in Mean Volume Compared to Controls,44%
same,Histological Changes of Cell Death at 24 Hours,+++
same,Histological Changes of Cell Death at 72 Hours,+++
DQQVLSRI [S05B-3],Histological findings in prostate of treated rats,"extensive cell death, necrosis, loss of glandular epithelium and atrophy"
same,Calculated Mean Volume (mm^3) At 7 Days,289 mm^3
same,Reduction in Mean Volume Compared to Controls,44%
same,Histological Changes of Cell Death at 24 Hours,+++
same,Histological Changes of Cell Death at 72 Hours,+++
IDQQVL [S05B-4],Histological findings in prostate of treated rats,"extensive cell death, necrosis, loss of glandular epithelium and atrophy"
same,Calculated Mean Volume (mm^3) At 7 Days,358 mm^3
same,Reduction in Mean Volume Compared to Controls,31%
same,Histological Changes of Cell Death at 24 Hours,++
same,Histological Changes of Cell Death at 72 Hours,++
